This assay deals with recombinant EsigPBP3. Kind of assay: fluorescence competitive binding assay (FCBA) with 1-NPN probe. On the set-up: species or system Endoclita signifer. To be noted: for IC50: displacement of 1-NPN, 20 mM Tris-HCl pH 7.4, ligands 2-24 µM; for IC50 / Ki: 2 µM EsigPBP3 and 2 µM 1-NPN; for Ki: from IC50 by Ki = [IC50]/(1 + [1-NPN]/K1-NPN). The method, then: Fluorescence competition assays were conducted using 1-NPN ([…]) as a selective fluorescence probe to measure the affinity of ligands for binding to the recombinant EsigPBP3 [49]. […] The emission wavelength range was set from 380 nm to 520 nm. After the fluorescence intensity stabilized, scans were performed and the emission was recorded (both excitation and emission slit widths were set to 10 nm). A final concentration of 2 μM EsigPBP3 solution was prepared in 20 mM Tris-HCl buffer (pH 7.4), and the ligands were dissolved in chromatographically pure methanol as 1 mM stock solutions. […] The compound was added proportionally to a mixture with a final concentration of 2 µM EsigPBP3 protein and 2 µM 1-NPN. The ability of ligands to bind to the EsigPBP3 protein was monitored by the decrease in fluorescence intensity.

Data on 10 molecules can be found in paper PMC10931625, “EsigPBP3 Was the Important Pheromone-Binding Protein to Recognize Male Pheromones and Key Eucalyptus Volatiles” (International Journal of Molecular Sciences, 2024).

Molecules are shown by their SMILES.

Broadly, the IC50 is the point on the concentration scale where inhibition reaches its midpoint. As a reminder, the Ki is the equilibrium dissociation constant of an inhibitor or competing ligand from its target. `Cc1cc(C)cc(C)c1` [1,3,5-trimethyl-benzen]: the IC50 is above 24 µM. The Ki (pH 7.4) is above 16.1 µM.

What is called Kd is a measure of binding affinity in units of concentration. As to `c1ccc(Nc2cccc3ccccc23)cc1` [1-NPN, reference compound], the Kd (binding curve and Scatchard plot, 2 µM EsigPBP3, 1-NPN 2-24 µM, pH 7.4, read-out: dissociation constant (Kd) of EsigPBP3 for the reporter ligand 1-NPN) worked out at 3.36 µM.

Turning to `CC(C)(O)c1ccccc1` [2-phenyl-2-propanol], the IC50 is above 24 µM. Also, the Ki (pH 7.4) was above 16.1 µM.

Turning to `CCc1ccc(C(C)=O)cc1` [4-ethylacetophenone], the IC50 is 8.26 µM. The Ki (pH 7.4) worked out at 5.55 µM.

For the molecule `CC1=CCC2CC1C2(C)C` (stereo not drawn) [(−)-α-pinene], the IC50 was 7.85 µM. Besides, the inhibitory constant (Ki) (pH 7.4) was determined as 5.27 µM.

`C=C1CCC2CC1C2(C)C` (stereo not drawn) [(−)-β-pinene]: the IC50 was 4.77 µM. In addition, for the setting “pH 7.4”, the Ki was found to be 3.2 µM.

On to `CCc1ccccc1CC` [benzene, 1,2-diethyl-], for which the IC50 was 7.19 µM. For the same molecule, the Ki (pH 7.4) amounted to 4.83 µM.

For `C=C1C2CCC(C2)C1(C)C` (stereo not shown) [camphene], the IC50 came out at 9.85 µM. Where the note is “pH 7.4”, the Ki stood at 6.61 µM.

Take `CC12CCC(CC1)C(C)(C)O2` [eucalyptol]: the IC50 was above 24 µM. For the same molecule, under “pH 7.4”, the Ki was above 16.1 µM.

As to `CC1=CC[C@H](C(C)C)C=C1` [α-phellandrene], the IC50 is 5.32 µM. Also, where the note is “pH 7.4”, the Ki stood at 3.57 µM.
